Test results from article PMC11396129, “Oxindole–benzothiazole hybrids as CDK2 inhibitors and anticancer agents: design, synthesis and biological evaluation” (BMC Chemistry, 2024).

Columns and labels:
[1] = test system: SN12C; assay: NCI 60 panel growth inhibition (SRB), renal cancer; assay type: cell-based, human; details: 10 μM
In short: (§1)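 Plating density: 5000–40,000 cells/well. Drug: DMSO concentrate diluted into medium plus gentamicin, five levels. Fixation: TCA. Read-out: SRB absorbance, converted to percentage growth against Tz and C.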

[2] = test system: A498; assay: NCI 60 panel growth inhibition (SRB), renal cancer; assay type: cell-based, human; details: A498, 10 μM
In short: as §1

[3] = test system: 786-0; assay: NCI 60 panel growth inhibition (SRB), renal cancer; assay type: cell-based, human; details: 786-0, 10 μM
In short: as §1

[4] = test system: ACHN; assay: NCI 60 panel growth inhibition (SRB), renal cancer; assay type: cell-based, human; details: 10 μM
In short: as §1

[5] = test system: CAKI-1; assay: NCI 60 panel growth inhibition (SRB), renal cancer; assay type: cell-based, human; details: CAKI-1, 10 μM
In short: as §1

[6] = test system: HT29; assay: NCI 60 panel growth inhibition (SRB), colon cancer; assay type: cell-based, human; details: HT29, 10 μM
In short: as §1

[7] = test system: SNB-19; assay: NCI 60 panel growth inhibition (SRB), CNS cancer; assay type: cell-based, human; details: SNB-19, 10 μM
Procedure: (§2) Screening of cytotoxic activity against a panel of sixty human tumor cell lines The selected compounds by NCI were evaluated for their anticancer activity in a two- stage process. […] Then, the output from the single dose screen is reported as a mean graph. […] Assay protocol. […] For a typical screening experiment, cells are inoculated into 96 well microtiter plates in 100 µL at plating densities ranging from 5000 to 40,000 cells/well depending on the doubling time of individual cell lines. […] After 24 h, two plates of each cell line are fixed in situ with TCA, to represent a measurement of the cell population for each cell line at the time of drug addition (Tz). The experimental drugs are solubilized in dimethyl sulfoxide at 400-fold the desired final maximum test concentration and stored frozen prior to use. At the time of drug addition, an aliquot of frozen concentrate is thawed and diluted to twice the desired final maximum test concentration with complete medium containing 50 µg/mL gentamicin. Additional four, 10-fold or ½ log serial dilutions are made to provide a total of five drug concentrations plus control. […] For adherent cells, the assay is terminated by the addition of cold TCA. […] The supernatant is discarded, and the plates are washed five times with tap water and air dried. […] Using the seven absorbance measurements [time zero, (Tz), control growth, (C), and test growth in the presence of drug at the five concentration levels (Ti)], the percentage growth is calculated at each of the drug concentrations levels. Percentage growth inhibition is calculated as: [(Ti Tz)/(C–Tz)] x 100 for concentrations for which Ti>/=Tz and [(Ti-Tz)/Tz] x 100 for concentrations for which Ti < Tz. Three dose response parameters are calculated for each experimental agent. […] The drug concentration resulting in total growth inhibition (TGI) is calculated from Ti = Tz. […] Values are calculated for each of these three parameters if the level of activity is reached; however, if the effect is not reached or is exceeded, the value for that parameter is expressed as greater or less than the maximum or minimum concentration tested.

[8] = test system: SF-268; assay: NCI 60 panel growth inhibition (SRB), CNS cancer; assay type: cell-based, human; details: SF-268, 10 μM
Procedure: as §2

[9] = test system: U251; assay: NCI 60 panel growth inhibition (SRB), CNS cancer; assay type: cell-based, human; details: U251, 10 μM
Procedure: as §2

[10] = test system: SF-295; assay: NCI 60 panel growth inhibition (SRB), CNS cancer; assay type: cell-based, human; details: SF-295, 10 μM
Procedure: as §2

[11] = test system: SNB-75; assay: NCI 60 panel growth inhibition (SRB), CNS cancer; assay type: cell-based, human; details: SNB-75, 10 μM
Procedure: as §2

[12] = test system: SF-539; assay: NCI 60 panel growth inhibition (SRB), CNS cancer; assay type: cell-based, human; details: SF-539, 10 μM
Procedure: as §2

[13] = test system: NCI 60 cancer cell line panel; assay: NCI 60 panel growth inhibition (SRB), whole panel; assay type: cell-based, human; details: mean over NCI 60 panel, 10 μM
Procedure: as §2

[14] = test system: OVCAR-4; assay: NCI 60 panel growth inhibition (SRB), ovarian cancer; assay type: cell-based, human; details: OVCAR-4, 10 μM
Procedure: as §2

[15] = test system: OVCAR-8; assay: as above; assay type: cell-based, human; details: OVCAR-8, 10 μM
Procedure: as §2

[16] = test system: NCI/ADR-RES; assay: as above; assay type: cell-based, human; details: 10 μM
Procedure: as §2

[17] = test system: OVCAR-5; assay: as above; assay type: cell-based, human; details: OVCAR-5, 10 μM
Procedure: as §2

[18] = test system: IGROV1; assay: as above; assay type: cell-based, human; details: IGROV1, 10 μM
Procedure: as §2

[19] = test system: OVCAR-3; assay: as above; assay type: cell-based, human; details: OVCAR-3, 10 μM
Procedure: as §2

[20] = test system: MOLT-4; assay: NCI 60 panel growth inhibition (SRB), leukemia; assay type: cell-based, human; details: MOLT-4, 10 μM
Procedure: as §2

[21] = test system: HL-60(TB); assay: NCI 60 panel growth inhibition (SRB), leukemia; assay type: cell-based, human; details: HL-60(TB), 10 μM
Procedure: as §2

[22] = test system: CCRF-CEM; assay: NCI 60 panel growth inhibition (SRB), leukemia; assay type: cell-based, human; details: 10 μM
Procedure: as §2

[23] = test system: RPMI-8226; assay: NCI 60 panel growth inhibition (SRB), leukemia; assay type: cell-based, human; details: RPMI-8226, 10 μM
Procedure: as §2

[24] = test system: K-562; assay: NCI 60 panel growth inhibition (SRB), leukemia; assay type: cell-based, human; details: K-562, 10 μM
Procedure: as §2

[25] = test system: SR; assay: NCI 60 panel growth inhibition (SRB), leukemia; assay type: cell-based, human; details: 10 μM
Procedure: as §2

[26] = test system: SK-MEL-2; assay: NCI 60 panel growth inhibition (SRB), melanoma; assay type: cell-based, human; details: SK-MEL-2, 10 μM
In short: as §1

[27] = test system: SK-OV-3; assay: NCI 60 panel growth inhibition (SRB), ovarian cancer; assay type: cell-based, human; details: SK-OV-3, 10 μM
Procedure: as §2

SMILES	GI% [1] [%]	GI% [2]	GI% [3] [%]	GI% [4] [%]	GI% [5] [%]	melting point [°C]	GI% [6]	GI% [7]	GI% [8]	GI% [9]	GI% [10]	GI% [11]	GI% [12] [%]	GI% [15]	GI% [16] [%]	GI% [17]	GI% [18]	GI% [19]	GI% [20]	GI% [21]	also measured
COc1ccc(-c2nc3ccccc3s2)cc1OCC(=O)NN=C1C(=O)Nc2ccc([N+](=O)[O-])cc21 [Compound 9p, 2-(5-(Benzo[d]thiazol-2-yl)-2-methoxyphenoxy)-N′-(5-nitro-2-oxoindolin-3-ylidene)acetohydrazide]	37.68	20.06%	87.35	76.97	45.22	288 to 290	– (GI% < 5%)	86.59%	53.94%	78.07%	89.39%	120.44%	65.68	38.18%	19.93	– (GI% < 5%)	41.60%	– (GI% < 5%)	– (GI% < 5%)	– (GI% < 5%)	Mean GI% [13]: 30.34%; GI% [14]: 13.06%; GI% [22]: 9.28%; GI% [23]: – (GI% < 5%); GI% [24]: – (GI% < 5%); GI% [25]: – (GI% < 5%); GI% [26]: 115.65%
COc1ccc(-c2nc3ccccc3s2)cc1OCC(=O)NN=C1C(=O)Nc2ccc(C)cc21 [Compound 9n, 2-(5-(Benzo[d]thiazol-2-yl)-2-methoxyphenoxy)-N′-(5-methyl-2-oxoindolin-3-ylidene)acetohydrazide]	5.76	– (GI% < 5%)	44.99	8.57	12.63	224 to 226	– (GI% < 5%)	– (GI% < 5%)	5.27%	– (GI% < 5%)	– (GI% < 5%)	– (GI% < 5%)	11.49	– (GI% < 5%)	14.31	7.10%	– (GI% < 5%)	– (GI% < 5%)	13.07%	– (GI% < 5%)	GI% [27]: – (GI% < 5%); GI% [22]: 16.11%; GI% [23]: 14.26%; GI% [24]: 6.70%; GI% [26]: – (GI% < 5%)
COc1ccc(-c2nc3ccccc3s2)cc1OCC(=O)NN=C1C(=O)Nc2ccc(Cl)cc21 [Compound 9q, 2-(5-(Benzo[d]thiazol-2-yl)-2-methoxyphenoxy)-N′-(5-chloro-2-oxoindolin-3-ylidene)acetohydrazide]	36.67	– (GI% < 5%)	44.24	59.32	50.03	260 to 262	6.74%	63.00%	27.89%	63.50%	23.77%	15.62%	34.10	59.73%	47.55	– (GI% < 5%)	16.12%	31.89%	71.36%	– (GI% < 5%)	Mean GI% [13]: 31.16%; GI% [14]: 25.24%; GI% [22]: 81.35%; GI% [23]: 46.48%; GI% [24]: 50.00%; GI% [25]: 18.57%; GI% [26]: 56.54%
COc1ccc(-c2nc3ccccc3s2)cc1OCC(=O)NN=C1C(=O)Nc2ccc(Br)cc21 [Compound 9r, 2-(5-(Benzo[d]thiazol-2-yl)-2-methoxyphenoxy)-N′-(5-bromo-2-oxoindolin-3-ylidene)acetohydrazide]	20.61	– (GI% < 5%)	20.37	30.78	29.61	271 to 273	– (GI% < 5%)	48.19%	– (GI% < 5%)	30.21%	– (GI% < 5%)	– (GI% < 5%)	21.62	38.56%	27.04	– (GI% < 5%)	– (GI% < 5%)	– (GI% < 5%)	13.12%	– (GI% < 5%)	Mean GI% [13]: 10.08%; GI% [14]: – (GI% < 5%); GI% [22]: 42.87%; GI% [23]: 19.17%; GI% [24]: 24.52%; GI% [25]: – (GI% < 5%); GI% [26]: 17.63%
